Assay results: paper PMC7179653 (Antimicrobial Agents and Chemotherapy, 2020)

Tests used:
[1] = Drug-drug interaction analysis nacubactam/meropenem (ANCOVA, geometric mean ratios); type: in vivo, human; conditions: nacubactam 2,000 mg single dose, 90% CI
Protocol: All participants in the active group received a single 2,000-mg dose of both drugs on day 3 and q8h on days 4 to 8, with a final single dose of both drugs on the morning of day 9. A washout period of approximately 24 h between treatments was provided.

[2] = MAD study: safety and tolerability (TEAEs, laboratory safety tests); type: in vivo, human; conditions: for TEAE: Catheter site pain / TEAE: Diarrhea / TEAE: Ecchymosis / TEAE: Headache / TEAE: Infusion site extravasation / TEAE: Injection site erythema / TEAE: Injection site extravasation / TEAE: Injection site hemorrhage / TEAE: Injection site injury / TEAE: Injection site pain / TEAE: Medical device site erythema (erythema at the ECG patch sites) / TEAE: Nausea / TEAE: Phlebitis / TEAE: Scratch / TEAE: Vessel puncture site hemorrhage / Withdrawn due to AE / ≥1 TEAE / ≥1 drug-related TEAE / ≥1 serious TEAE: n = 6
Protocol: The MAD study consisted of three parts (Fig. 1). […] Participants were enrolled in two sequential cohorts (cohort 1, followed by cohort 2). […] Participants were also enrolled in two sequential cohorts (cohort 3, followed by cohort 4). […] A washout period of approximately 24 h between treatments was provided. A sentinel dosing strategy was employed in both studies. […] In all cohorts, escalation to the next dose occurred after a safety review of the previous cohort. In the MAD study, sentinel dosing was performed in part 3, wherein participants were evaluated for safety up to 24 h after administration of the first drug combination (or placebo) on day 3, prior to enrolling additional participants. Safety assessments included monitoring of AEs, laboratory safety tests (hematology, serum chemistry, and urinalysis), 12-lead ECG (discrete recordings and 24-h Holter recording), and vital signs (blood pressure, pulse rate, and body temperature). In the SAD study, safety assessments were performed predose at screening, at day 1, postdose periodically on days 1, 2, and 7 (follow-up), and at early withdrawal, if relevant. […] In the MAD study, safety assessments were done predose at screening, at day 2, postdose periodically on days 1, 2, 4, 7, and 8, on days 13 to 15 (follow-up), and at early withdrawal, if relevant. […] On all other days, a single predose sample was collected for pharmacokinetic evaluation prior to the morning infusion. Blood was collected into lithium-heparin tubes and stored at a nominal –80°C temperature until analysis.

[3] = MAD parts 1 and 2, 8,000 mg (single dose)

NCCONC(=O)[C@@H]1CC[C@@H]2CN1C(=O)N2OS(=O)(=O)O [Nacubactam]
CLR GMR, monotherapy vs combination with meropenem ([1]; 0.85 to 1.07): 0.95 | Vss GMR, monotherapy vs combination with meropenem ([1]; 0.87 to 1.11): 0.98 | participants reporting AEs ([2]; MAD monotherapy phase (parts 1 and 2), 13 of the 24 participants): 54.2% | total number of AEs ([2]; MAD monotherapy phase (parts 1 and 2), 24 participants): 48 | TEAE: Catheter site pain ([2]; MAD parts 1 and 2, 1,000 mg): 1/1 | TEAE: Diarrhea ([2]; MAD parts 1 and 2, 1,000 mg): 0 n/E | TEAE: Ecchymosis ([2]; MAD parts 1 and 2, 1,000 mg): 1/1 | TEAE: Headache ([2]; MAD parts 1 and 2, 1,000 mg): 1/1 | TEAE: Infusion site extravasation ([2]; MAD parts 1 and 2, 1,000 mg): 1/1 | TEAE: Injection site erythema ([2]; MAD parts 1 and 2, 1,000 mg): 1/1 | TEAE: Injection site extravasation ([2]; MAD parts 1 and 2, 1,000 mg): 0 n/E | TEAE: Injection site hemorrhage ([2]; MAD parts 1 and 2, 1,000 mg): 0 n/E | TEAE: Injection site injury ([2]; MAD parts 1 and 2, 1,000 mg): 0 n/E | TEAE: Injection site pain ([2]; MAD parts 1 and 2, 1,000 mg): 0 n/E | TEAE: Medical device site erythema (erythema at the ECG patch sites) ([2]; MAD parts 1 and 2, 1,000 mg): 0 n/E | TEAE: Nausea ([2]; MAD parts 1 and 2, 1,000 mg): 0 n/E | TEAE: Phlebitis ([2]; MAD parts 1 and 2, 1,000 mg): 0 n/E | TEAE: Scratch ([2]; MAD parts 1 and 2, 1,000 mg): 0 n/E | TEAE: Vessel puncture site hemorrhage ([2]; MAD parts 1 and 2, 1,000 mg): 0 n/E | Withdrawn due to AE ([2]; MAD parts 1 and 2, 1,000 mg): 0 n | ≥1 TEAE ([2]; MAD parts 1 and 2, 1,000 mg): 4/8 | ≥1 drug-related TEAE ([2]; MAD parts 1 and 2, 1,000 mg): 2/2 | ≥1 serious TEAE ([2]; MAD parts 1 and 2, 1,000 mg): 0 n | TEAE: Catheter site pain ([2]; MAD parts 1 and 2, 2,000 mg): 0 n/E | TEAE: Diarrhea ([2]; MAD parts 1 and 2, 2,000 mg): 0 n/E | TEAE: Ecchymosis ([2]; MAD parts 1 and 2, 2,000 mg): 0 n/E | TEAE: Headache ([2]; MAD parts 1 and 2, 2,000 mg): 0 n/E | TEAE: Infusion site extravasation ([2]; MAD parts 1 and 2, 2,000 mg): 0 n/E | TEAE: Injection site erythema ([2]; MAD parts 1 and 2, 2,000 mg): 0 n/E | TEAE: Injection site extravasation ([2]; MAD parts 1 and 2, 2,000 mg): 1/1 | TEAE: Injection site hemorrhage ([2]; MAD parts 1 and 2, 2,000 mg): 0 n/E | TEAE: Injection site injury ([2]; MAD parts 1 and 2, 2,000 mg): 0 n/E | TEAE: Injection site pain ([2]; MAD parts 1 and 2, 2,000 mg): 0 n/E | TEAE: Medical device site erythema (erythema at the ECG patch sites) ([2]; MAD parts 1 and 2, 2,000 mg): 0 n/E | TEAE: Nausea ([2]; MAD parts 1 and 2, 2,000 mg): 0 n/E | TEAE: Phlebitis ([2]; MAD parts 1 and 2, 2,000 mg): 0 n/E | TEAE: Scratch ([2]; MAD parts 1 and 2, 2,000 mg): 0 n/E | TEAE: Vessel puncture site hemorrhage ([2]; MAD parts 1 and 2, 2,000 mg): 0 n/E | Withdrawn due to AE ([2]; MAD parts 1 and 2, 2,000 mg): 0 n | ≥1 TEAE ([2]; MAD parts 1 and 2, 2,000 mg): 2/3 | ≥1 drug-related TEAE ([2]; MAD parts 1 and 2, 2,000 mg): 2/2 | ≥1 serious TEAE ([2]; MAD parts 1 and 2, 2,000 mg): 0 n | TEAE: Catheter site pain ([2]; MAD parts 1 and 2, 4,000 mg): 0 n/E | TEAE: Diarrhea ([2]; MAD parts 1 and 2, 4,000 mg): 0 n/E | TEAE: Ecchymosis ([2]; MAD parts 1 and 2, 4,000 mg): 0 n/E | TEAE: Headache ([2]; MAD parts 1 and 2, 4,000 mg): 1/1 | TEAE: Infusion site extravasation ([2]; MAD parts 1 and 2, 4,000 mg): 0 n/E | TEAE: Injection site erythema ([2]; MAD parts 1 and 2, 4,000 mg): 1/1 | TEAE: Injection site extravasation ([2]; MAD parts 1 and 2, 4,000 mg): 1/1 | TEAE: Injection site hemorrhage ([2]; MAD parts 1 and 2, 4,000 mg): 2/2 | TEAE: Injection site injury ([2]; MAD parts 1 and 2, 4,000 mg): 2/2 | TEAE: Injection site pain ([2]; MAD parts 1 and 2, 4,000 mg): 3/3 | TEAE: Medical device site erythema (erythema at the ECG patch sites) ([2]; MAD parts 1 and 2, 4,000 mg): 4/4 | TEAE: Nausea ([2]; MAD parts 1 and 2, 4,000 mg): 0 n/E | TEAE: Phlebitis ([2]; MAD parts 1 and 2, 4,000 mg): 0 n/E | TEAE: Scratch ([2]; MAD parts 1 and 2, 4,000 mg): 1/1 | TEAE: Vessel puncture site hemorrhage ([2]; MAD parts 1 and 2, 4,000 mg): 2/2 | Withdrawn due to AE ([2]; MAD parts 1 and 2, 4,000 mg): 0 n | ≥1 TEAE ([2]; MAD parts 1 and 2, 4,000 mg): 6/36 | ≥1 drug-related TEAE ([2]; MAD parts 1 and 2, 4,000 mg): 3/3 | ≥1 serious TEAE ([2]; MAD parts 1 and 2, 4,000 mg): 0 n | TEAE: Catheter site pain [2, 3]: 0 n/E | TEAE: Diarrhea [2, 3]: 0 n/E | TEAE: Ecchymosis [2, 3]: 0 n/E | TEAE: Headache [2, 3]: 0 n/E | TEAE: Infusion site extravasation [2, 3]: 0 n/E | TEAE: Injection site erythema [2, 3]: 0 n/E | TEAE: Injection site extravasation [2, 3]: 0 n/E | TEAE: Injection site hemorrhage [2, 3]: 0 n/E | TEAE: Injection site injury [2, 3]: 0 n/E | TEAE: Injection site pain [2, 3]: 0 n/E | TEAE: Medical device site erythema (erythema at the ECG patch sites) [2, 3]: 0 n/E | TEAE: Nausea [2, 3]: 0 n/E | TEAE: Phlebitis [2, 3]: 0 n/E | TEAE: Scratch [2, 3]: 0 n/E | TEAE: Vessel puncture site hemorrhage [2, 3]: 0 n/E | Withdrawn due to AE [2, 3]: 0 n | ≥1 TEAE [2, 3]: 1/1 | ≥1 drug-related TEAE [2, 3]: 0 n/E | ≥1 serious TEAE [2, 3]: 0 n | tolerability ([2]; all single doses up to 8,000 mg and multiple doses up to 4,000 mg q8h): well tolerated | serious AEs ([2]; alone (50 to 8,000 mg) or coadministered with meropenem (2,000 mg each), both studies): no serious AEs were reported | effect on kidney function ([2]; nacubactam alone, validated measures of renal function and exploratory urine kidney biomarkers): no significant effects on kidney function
